# Assay results from US10526581B2, “Modulation of cardiac stem-progenitor cell differentiation, assays and uses thereof” (priority 2013, dated 2020).
# Columns and labels:
# adult rat myocardium = experiment: diffuse myocardial damage by single ISO injection in rats: eCSC activation; assay type: in vivo
# Excerpt: Adult c-kit^poseCSCs are scattered throughout the myocardium with higher density within the atria and the ventricular apex (10). When the apical myocardium is severely injured by catecholamine overdrives, induced through Isoproterenol bolus injection, c-kit^poseCSCs are rapidly activated and respond to damage by increasing their number (16) and differentiate into cardiomyocyte lineage (Unpublished data). The same growth response by these cells is detectable in the ischemic myocardium (17) as well as in hearts with pathologic or physiological overload (18,19). During embryonic life, a progressive process of cell specification or commitment, precisely regulated in space and time, determine cardiac muscle cell creation from cardiac progenitor cells (20). In the latter phenomenon, “cell-autonomous” decisions (intrinsic to a cell) are accompanied by “cell-non-autonomous” events, which entail extracellular cardiomyogenic instructive molecules known as morphogens or cardiopoietic growth factors (cGFs) (8,9). […] The mRNA levels for different cGFs and their detection by immunohistochemistry correlated with the levels of the corresponding protein (FIG. 4).
# Diffuse myocardial damage was induced by a single injection (s.c.) of isoproterenol (ISO) to rats (5 mg kg^−1) or mice (200 mg kg^−1). […] Mer-CreMer mice were kindly provided by Drs. Tammie Bishop and Ludwig Thierfelder (see below). ZEG and RYP mice were purchased at Jackson Laboratory.
# To follow c-kit^poseCSC physiological response to cardiac injury, we induced severe diffuse myocardial damage in adult rats with a single high dose of isoproterenol (ISO) (Ellison et al., 2007b). New cell formation was monitored with BrdU labeling in vivo (Waring et al., 2012). In the presence of a patent coronary circulation, ISO produces a Takotsubo-like cardiomyopathy (Akashi et al., 2008) with both diffuse sub-endocardial and apical CM death. This acute insult kills 8-10% of the LV CMs and results in overt acute heart failure (Ellison et al., 2007b). […] While in the normal myocardium (CTRL) most c-kit^poseCSCs are quiescent (>90% BrdU^neg and Ki67^neg), after ISO damage a high fraction enters the cell cycle (FIG. 14A-C and FIG. 21). At day 3, ˜88% are BrdU^pos (FIG. 14C), leading to an ˜8-fold increase in eCSC number, which decreases thereafter but remains above CTRL for up to 28 days (FIG. 14A).
# The expansion of the eCSC pool in response to CM loss by ISO damage was followed by their commitment to myocardial cell lineages. […]
# [1] = test system: rats with ISO+5-FU cardiomyopathy; experiment: hemodynamic measurements (LV catheterization) after tail vein cell injection in ISO+5-FU cardiomyopathy; assay type: in vivo, rat; conditions: (84 d) 3 months
structure (smiles),measurement,setting,value
"CC(C)NCC(O)c1ccc(O)c(O)c1 (centres unmarked) [ISO, isoproterenol]",expression of cardiopoietic growth factors in the myocardium,adult rat myocardium; after ISO injection,significantly increased expression
same,increase of c-kit^posNkx2.5^posGATA4^pos cells over CTRL,adult rat myocardium; by day 3 after ISO,~4 fold
same,BrdU^pos c-kit^pos eCSCs,adult rat myocardium; day 3 after ISO,~88%
same,increase in eCSC number,adult rat myocardium; day 3 after ISO,~8 fold
same,LVDevP,[1],98.9 ± 10.6 mmHg
same,LVEDP,[1],2.2 ± 2.3 mmHg
same,dP/dt+,[1],8344 ± 1294 mmHg/s
same,dP/dt−,[1],7936 ± 1072 mmHg/s
